The numbers were not newly measured in publication PMC8330515 (Bioorganic & medicinal chemistry letters, 2020), which cites them from elsewhere.

The IC50 is the concentration needed to halve the response being measured.

This data set has as its system normal prostate epithelial cells. The following applies: read-out: 24 h IC50 in normal prostate epithelial cells.

Molecules are shown by their SMILES.

Consider `CCN(CC)C(=S)SCc1ccc(NC(=O)CC[C@H](N)C(=O)O)cc1` [GGTDTC], for which the IC50 is above 15 µM.
